# In patent US12577232B2, “N-heterocycle substituted tryptamine derivatives and methods of using” (ENVERIC B[…] INC., priority 2024, dated 2026):
# Several values for one entry are separate records, joined by “and”; a condition that tells them apart may be missing. Identical values can stand only once.
# Legend:
# [1] = tested on: C57BL/6 mice; assay: Mouse Head Twitch Response (HTR) assay to assess hallucinogenic potential; type: in vivo; conditions: 3 mg/kg i.p.; for mean HTR: 0-15 min interval (preliminary screening); for HTR compared with the HTR response for 5-Br-DMT (one-way ANOVA, Dunnett): alpha 0.05
# Method: All experiments were approved by the University of Calgary Animal Care and Use Committee in accordance with Canadian Council on Animal Care guidelines. C57BL/6-Elite mixed sex mice were obtained from Charles River (8 weeks old). Until the first experiment, mice were group-housed, then single-housed on a 12:12 h light/dark schedule (lights on at 07:00 hours) with ad libitum access to food and water. Before any behavioral screening, mice were handled and exposed to the testing chamber for at least 5 min each day for three successive days and habituated to the experimental room 1 h before testing. The testing chamber was cleaned with a 70% ethanol solution between experiments to eliminate odor from other mice. Drug compounds (100 mM in DMSO) were diluted in sterile excipient (10% EtOH/15% PEG400 in ddH2O) to 3 mg/kg (preliminary screening) or 0.5, 2, 4, 7, and 10 mg/kg (dose-curve analysis) and administered using intraperitoneal (i.p.) drug injections. […] HTR was analyzed during the 0-to-15-minute window following drug administration. […] Mean HTR between 10 and 5 signifies reduced hallucinogenic potential relative to positive controls.
# [2] = tested on: human model (NT2) neurons; assay: Neuroplastogenicity (neurite outgrowth) assay in NT2 neurons; type: cell-based; design: key: a positive (+) designation indicating strong evidence of enhanced neurite outgrowth in drug-treated NT2 cells compared to vehicle-treated cells; a negative (−) designation indicating weak or no evidence of enhanced neurite outgrowth in drug-treated NT2 cells compared to vehicle-treated cells; conditions: 1 or 10 μM, 48 h, visual inspection vs vehicle (0.1% DMSO)
# Source text: Classic psychedelics such as psilocybin and DMT show potential to treat anxiety and depression, and it has been theorized that such long-term improvements arise because these drugs rapidly and lastingly stimulate neuroplasticity (Calder and Hasler, 2023, Neuropsychopharmacol. 48:104-112). Thus, it was of interest to determine the potential of new compounds as neuroplastogens. Herein, we assess the capacity of various compounds to enhance neurite outgrowth in human model (NT2) neurons.
# Human NT2/D1 precursor cells were purchased from the American Type Culture Collection (ATCC, Manassas, VA, USA). Neuronal differentiation was carried out as previously described (Roloff et al., 2015, PloS ONE 10:e0118536) with minor modifications. Firstly, NT2/D1 cells were seeded in T-25 suspension culture flasks (REF #690190, Greiner bio-one, Germany). Each flask contains a minimum of 5×10^6 cells in 10 ml of DMEM/F12 supplemented with 10% fetal bovine serum (FBS), 1% penicillin and streptomycin and 10 μM retinoic acid (RA) medium to start neuronal differentiation. The cells were cultured for 3 days in free floating medium. At the end of the incubation cells were trypsinized and collected by centrifugation, mechanically dispersed, and counted. Counted cells were seeded along Poly D-Lysine (PDL) coated cover slips (12 mm; diameter round, Fisher Scientific; GG-12-PDL) containing a minimum of 0.1×10^5 cells in culture medium without RA. The next day culture medium was replaced with RA medium containing 2% of FBS. These cells cultured for 5 days and two days later, RA medium was changed.
# After cells had successfully attached and established along coverslips, the RA medium was replaced with new medium containing 2% FBS and one of the following: (1) test compound (1 or 10 μM), (2) RhoK (ROCK) inhibitor Y-27632 (1 μM) as a positive control (Dihydrochloride; Sigma-Aldrich) (Roloff et al., 2015, PloS ONE 10:e0118536); (3) DMT (1 or 10 μM) as a positive control (Calder and Hasler, 2023, Neuropsychopharmacol. 48:104-112), or (4) vehicle (0.1% DMSO) as a negative control. These cells were incubated for 48 hours under standard conditions (370C, 5% CO2). The cells cultured along coverslips were collected after 48 hours of treatment. The coverslips washed with calcium chloride and magnesium chloride-free phosphate buffered saline (PBS) pH 7.4 (Gibco, #70011-044) and fixed in paraformaldehyde (PFA) 4% in PBS (#J61899, thermoscientific) for 15 min at room temperature (RT) and washed three times with 0.01% of Triton-X100 in PBS (PBST) to remove remaining PFA and to permeabilize the cells. Non-specific binding sites were blocked with 5% of Bovine Serum Albumin (BSA) solution (#9048-46-8, Millipore) in PBST for 60 minutes at RT. Rabbit monoclonal antibody β-III-tubulin (1:5,000, ab52623, Abcam) was applied overnight (O/N) at 4° C. Next day cells are washed three times in PBST, neurons were incubated with secondary antibody Donkey anti-rabbit IgG(H+L) Alexa Fluor™ Plus488 (1:5000 #A32790, Invitrogen) for 1 hour at RT. These coverslips were mounted on Gluoromount-G™, with 4′6-diamidino-2′henylindoldihydrochloride (DAPI) (#E141818, Invitrogen). The immunofluorescence images were analyzed using an Olympus VS110 slide scanner microscope.
# B-III-Tubulin immunofluorescence was quantified using ImageJ. Briefly, Corrected Total Cell Fluorescence (CTCF) was acquired for at least ˜8-10 representative cells, where CTCF=Integrated Density−[Area of selected cell*Mean Fluorescence of background]. The CTCF values, referred to herein as ‘signal intensities’, were used to calculate overall means±SD for each treatment. One-Way ANOVA was used to compare treatments. Further, the mean of each treatment was compared with the mean of the control treatment (RA-differentiated cells treated with vehicle, 0.1% DMSO) using Dunnett's multiple comparison procedure. […]
# [3] = target: T1, 5-HT2A receptor (Homo sapiens, UniProt P28223); assay: 5-HT2A receptor radioligand competition assay (SPA, [3H]ketanserin); type: binding; conditions: 1 nM [3H]ketanserin; membranes containing 5-HT2A; read-out: 5-HT2A, Ki
# T1 construct: purchased PerkinElmer ES-313-M400UA
# Method: Competition assays were performed as for 5-HT1A assays with the following differences. […] Determination of non-specific binding was carried out in the presence of […] of spiperone (S7395-250MG, Sigma-Aldrich). Equilibrium binding constant for ketanserin (Kd) was determined from saturation binding curves using the ‘one-site saturation binding analysis’ method in GraphPad PRISM software (Version 9.2.0).
# [4] = target: T2, human serotonin transporter (SERT) (Homo sapiens, UniProt P31645); assay: biochemical; type: binding; conditions: 1 nM imipramine; membranes containing human SERT; read-out: SERT, Ki
# T2 construct: purchased PerkinElmer RBHSTM400UA
# Method: A commonly applied SERT binding assay involves competition binding assays employing radiolabelled ligands. […] Radioactive binding assays were carried out using the Scintillation Proximity Assay (SPA). For saturation binding assay, mixtures of 9 μg of membrane containing human SERT was pre-coupled to 1 mg of SPA beads at room temperature in a tube rotator for 1 hour in binding buffer (50 mM Tris-HCl pH7.4, 120 mM NaCl, 5 mM KCl, 1 mM ascorbic acid, 10 μM pargyline HCl). […] After incubation, the samples are read on a MicroBeta 2 Microplate Counter. Non-specific binding was carried out in the presence of 200 μM of clomipramine hydrochloride (C7291-1G, Sigma). Equilibrium binding constant for imipramine (KD) was determined from saturation binding curve using one-site saturation binding analysis from GraphPad PRISM software (Version 9.2.0). All test compounds were dissolved to 100 mM in DMSO and dilutions were carried out in assay buffer. […] Ki values were calculated from the competition displacement data using the competitive binding analysis from GraphPad PRISM software. […] Vehicle (DMSO) without drug was used as a negative control.
# T1 sequence (P28223 whole entry): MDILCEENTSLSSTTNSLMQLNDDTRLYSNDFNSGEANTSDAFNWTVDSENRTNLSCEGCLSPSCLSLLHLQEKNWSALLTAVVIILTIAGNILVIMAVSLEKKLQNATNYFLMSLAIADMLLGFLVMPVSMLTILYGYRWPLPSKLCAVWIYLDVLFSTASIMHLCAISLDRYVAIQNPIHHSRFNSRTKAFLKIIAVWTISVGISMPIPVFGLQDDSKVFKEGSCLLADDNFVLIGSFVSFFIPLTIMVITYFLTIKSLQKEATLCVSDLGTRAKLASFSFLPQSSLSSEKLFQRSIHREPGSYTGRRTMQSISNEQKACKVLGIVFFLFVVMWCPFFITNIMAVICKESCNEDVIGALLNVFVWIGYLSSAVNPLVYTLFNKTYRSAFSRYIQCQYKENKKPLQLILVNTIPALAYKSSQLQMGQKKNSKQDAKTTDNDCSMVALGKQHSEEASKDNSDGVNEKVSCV
# T2 sequence (P31645 whole entry): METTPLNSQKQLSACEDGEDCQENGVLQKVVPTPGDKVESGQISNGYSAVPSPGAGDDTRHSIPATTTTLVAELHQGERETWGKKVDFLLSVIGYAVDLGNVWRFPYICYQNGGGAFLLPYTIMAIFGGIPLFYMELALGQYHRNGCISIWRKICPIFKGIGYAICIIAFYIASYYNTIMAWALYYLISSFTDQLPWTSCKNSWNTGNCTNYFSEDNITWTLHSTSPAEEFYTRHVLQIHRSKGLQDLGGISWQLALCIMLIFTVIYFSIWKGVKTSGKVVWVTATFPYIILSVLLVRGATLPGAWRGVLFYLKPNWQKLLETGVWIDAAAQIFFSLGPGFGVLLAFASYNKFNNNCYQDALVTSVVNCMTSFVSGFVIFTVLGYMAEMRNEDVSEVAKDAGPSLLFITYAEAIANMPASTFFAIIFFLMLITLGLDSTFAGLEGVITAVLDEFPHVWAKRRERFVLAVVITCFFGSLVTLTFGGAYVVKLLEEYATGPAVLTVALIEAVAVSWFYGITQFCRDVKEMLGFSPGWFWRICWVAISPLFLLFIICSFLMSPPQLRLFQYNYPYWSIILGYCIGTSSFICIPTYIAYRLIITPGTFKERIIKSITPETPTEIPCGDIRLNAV
Compound,mean HTR [1],Evidence of neurite outgrowth: Yes (+) or No (−) [2],Ki [3],"HTR compared with the HTR response for 5-Br-DMT (one-way ANOVA, Dunnett) [1]",Ki [4]
CN(C)CCc1c[nH]c2cc(N3CCOCC3)c(F)cc12 [Compound (XI)],10.5,−,0.71 µM,,
CN(C)CCc1c[nH]c2cc(Cl)cc(N3CCOCC3)c12 [Compound (XXII)],6.5,,,not statistically significantly higher,
CC(=O)c1[nH]c2cc(F)c(N3CCOCC3)cc2c1CCN(C)C [Compound (IX)],9.25,−,14.2 µM,not statistically significantly higher,
CN(C)CCc1c[nH]c2cc(N3CCCC3)c(F)cc12 [Compound (XIV)],9.0,+,3.1 µM and 3.06 µM,not statistically significantly higher,
CN(C)CCc1c[nH]c2cc(F)c(N3CCOCC3)cc12 [Compound (VII)],7.75,+,63.9 µM,not statistically significantly higher,
CN(C)CCc1c[nH]c2ccc(N3CCOCC3)cc12 [Compound (V)],7.8,+,15 µM,not statistically significantly higher,
"CCN(CC)CCc1c[nH]c2cc(F)ccc12 [Compound 6-F-DET, 6-fluoro-diethyltryptamine, reference compound]",,+,0.35 µM,,
CN(C)CCc1c[nH]c2cc(N3CCN(C)CC3)cc(F)c12 [Compound (XXI)],9.25,,,not statistically significantly higher,
CN(C)CCc1c[nH]c2cc(F)cc(N3CCCC3)c12 [Compound (XIII)],7.75,+,2.96 µM,not statistically significantly higher,
CN(CCc1c[nH]c2cc(N3CCOCC3)c(F)cc12)Cc1ccccc1 [Compound (XX)],7.25,+,25.6 µM,not statistically significantly higher,
CN(C)CCc1c[nH]c2cc(N3CCOCC3)ccc12 [Compound (VIII)],8.0,−,10.9 µM,not statistically significantly higher,
CN(C)CCc1c[nH]c2cc(F)cc(N3CCN(C)CC3)c12 [Compound (XIX)],11.5,,,,
CN(C)CCc1c[nH]c2cc(N3CCCC3)ccc12 [Compound (X)],7.25,+,7.8 µM,not statistically significantly higher,
CCN(CC)CCc1c[nH]c2cc(F)cc(N3CCOCC3)c12 [Compound (XXVII)],8.0,−,5.4 µM and 5.38 µM,not statistically significantly higher,
"5-bromo-dimethyltryptamine [Compound 5-Br-DMT, reference compound]",,+,,,
"COc1ccc2c3c([nH]c2c1)CCN(C)CC3 [TBG, tabernanthalog, reference compound]",,+,0.8 µM,,
"N[C@@H](Cc1c[nH]c2ccccc12)C(=O)O [tryptophan, reference compound]",,,> 1000 µM,,
"C[C@@H](N)[C@H]1CC[C@H](C(=O)Nc2ccncc2)CC1 [RhoK, reference compound]",,+,,,
CN(C)CCc1c[nH]c2cc(F)c(N3CCN(c4ccccc4)CC3)cc12 [Compound (XXVI)],8.25,,,not statistically significantly higher,
CN(C)CCc1c[nH]c2ccc(N3CCC3)cc12 [Compound (VI)],11.5,+,12 µM,,
"COc1cc(CCN)c(OC)cc1Br [Compound 2C-B, reference compound]",,,,,11.4 µM
"COc1ccc2[nH]cc(CCN(C)C)c2c1 [Compound 5-MeO-DMT, 5-methoxy-dimethyltryptamine, reference compound]",,+,,,
CN(C)CCc1c[nH]c2cc(Cl)cc(N3CCN(C)CC3)c12 [Compound (XXIII)],7.25,+,12.5 µM,not statistically significantly higher,
CN(C)CCc1c[nH]c2cc(F)c(N3CCN(C)CC3)cc12 [Compound (XXV)],8.5,−,,not statistically significantly higher,
CN(C)CCc1c[nH]c2cc(N3CCOCC3)cc(F)c12 [Compound (XVI)],6.75,,6.2 µM and 6.19 µM,not statistically significantly higher,
